Where two headings read alike, the source gives them in different places.
Assays:
[1] = test system: L1210 murine leukemia cells; test: Cytotoxicity (parallel assay) against L1210 murine leukemia cells; format: cell-based; conditions: for inhibition at 0.1 µg/mL / inhibition at 0.25 µg/mL / inhibition at 0.5 µg/mL / inhibition at 1 µg/mL: Mus musculus; for inhibition at 0.1 µg/mL: L1210, 0.1 μg/mL; for inhibition at 0.25 µg/mL: L1210, 0.25 μg/mL; for inhibition at 0.5 µg/mL: L1210, 0.5 μg/mL; for inhibition at 1 µg/mL: L1210, 1.0 μg/mL; for cytotoxic activity compared with other compounds / activity relative to crambescidin 816 (1): L1210 cells
Source text: However, crambescidins 674 (9) and 687 (10) without a spermidine derivative unit are less than 5 times as active than 1.
Cytotoxicities against L1210 Cells for Compounds 1, 6-12,

[2] = test system: Herpes simple-x, Type I virus (HSV-I); conditions: cited from earlier work
Ca^2+ channel = conditions: cited from earlier work
L1210 cells = conditions: cited from earlier work
[3] = virus not named; cited from earlier work
Rhodotorula glutinis = test: Antimicrobial assay against Rhodotorula glutinis; format: cell-based
P388 cells = conditions: cited from earlier work
KB cells = conditions: cited from earlier work
Candida albicans = conditions: cited from earlier work
HSV = conditions: cited from earlier work
[4] = times as active than 1, without a spermidine derivative unit

Structure (SMILES) | inhibition at 0.1 µg/mL [1] | inhibition at 0.25 µg/mL [1] | inhibition at 0.5 µg/mL [1] | inhibition at 1 µg/mL [1] | other results
CCC1C=CCCC2(CC3CCC4(O)C(C(=O)OCCCCCCCCCCCCCCCC(=O)N(CCCN)CC(O)CCN)C5(CCCC(C)O5)NC(=N2)N34)O1 (centres unmarked) [Compound 1, crambescidin 816, reference compound] | 0% | 70% | 97% | 100% | antiviral activity against HSV-I [2]: exhibited antiviral activity; Ca^2+ channel blocker (Ca^2+ channel): potent calcium channel blocker; Ca^2+ channel blocker (Ca^2+ channel; listed as crambescidin 816 (1)): strong Ca^2+ channel blocker
CCC1C=CCCC2(CC3CCC4C(C(=O)OCCCCCCCCCCCCCCCC(=O)N(CCCN)CC(O)CCN)C5(CCCC(C)O5)NC(=N2)N34)O1 (centres unmarked) [Compound 5, 13, 14, 15-Isocrambescidin 800] | – | – | – | – | growth inhibition / cytotoxicity, L1210 cells (L1210 cells): substantially less cytotoxic; antiviral activity [3]: no observed antiviral activity
CCC1C=CCCC2(CC3CCC4C(C(=O)OCCCCCCCCCCCCCCCC(=O)N(CCCN)CCCCN)C5(CCCC(C)O5)NC(=N2)N34)O1 (centres unmarked) [Compound 6, ptilomycalin A] | 20% | 60% | 99% | 100% | cytotoxic activity compared with other compounds [1]: slightly more active than 1; antimicrobial activity at 2 μg/well (Rhodotorula glutinis): active; growth inhibition / cytotoxicity, L1210 cells (L1210 cells): shown cytotoxicity; cytotoxicity, P388 cells (P388 cells): shown cytotoxicity; cytotoxicity, KB cells (KB cells): shown cytotoxicity; antifungal activity against Candida albicans (Candida albicans): antifungal activity; antiviral activity (HSV) (HSV): antiviral activity (HSV)
CCC1C=CCCC2(CC3CCC4(O)C(C(=O)OCCCCCCCCCCCCCCCC(=O)N(CCCN)CC(Cl)CCN)C5(CCCC(C)O5)NC(=N2)N34)O1 (centres unmarked) [Compound 7, Crambescidin 834] | 90% | 95% | 95% | 100% | activity relative to crambescidin 816 (1) ([1]; times more active than 1): about 5 times
CCC1C=CCCC2(CC3CCC4C(C(=O)OCCCCCCCCCCCCCCCC(=O)N(CCCN)CC(Cl)CCN)C5(CCCC(C)O5)NC(=N2)N34)O1 (centres unmarked) [Compound 8, Crambescidin 818] | 90% | 95% | 95% | 100% | activity relative to crambescidin 816 (1) ([1]; times more active than 1): about 5 times
CCC1C=CCCC2(CC3CCC4(O)C(C(=O)OCCCCCCCCCCCCCCCC(=O)O)C5(CCCC(C)O5)NC(=N2)N34)O1 (centres unmarked) [Compound 9, Crambescidin 673] | 0% | 0% | 0% | 100% | activity relative to crambescidin 816 (1) [1, 4]: less than 5 times
CCC1C=CCCC2(CC3CCC4(O)C(C(=O)OCCCCCCCCCCCCCCCC(=O)OC)C5(CCCC(C)O5)NC(=N2)N34)O1 (centres unmarked) [Compound 10, Crambescidin 687] | 0% | 0% | 0% | 100% | activity relative to crambescidin 816 (1) [1, 4]: less than 5 times
CCC1C=CCCC2(CC3CCC4C(C(=O)OCCCCCCCCCCCCCCCC(=O)O)C5(CCCC(C)O5)NC(=N2)N34)O1 (centres unmarked) [Compound 11, Crambescidin 657] | – | – | – | 100% | Inhibition (%) ([1]; 0.1 μg/mL): 93%; cytotoxic activity compared with other compounds ([1]; listed as crambescidin 657 (11)): most cytotoxic compound in the test
CCC1C=CCCC2(CC3CCC4C(C(=O)OCCCCCCCCCCCCCCCC(=O)O)C5(CCCC(C)O5)NC(=N2)N34)O1 (centres unmarked) [Compound 12, 13,14,15-Isocrambescidin 657] | – | – | – | – | Inhibition (%) ([1]; 0.1 μg/mL): 0%; Inhibition (%) ([1]; 0.25 μg/mL): 0%; Inhibition (%) ([1]; 0.5 μg/mL): 0%; Inhibition (%) ([1]; 1.0 μg/mL): 100%; inhibition at 5 μg/mL ([1]; 5 μg/mL): no inhibition; cytotoxic activity compared with other compounds ([1]; listed as 13, 14, 15-Isocrambescidin 657 (12)): substantially less active
CCC1C=CCCC2(CC3CCC4C(C(=O)OCCCCCCCCCCCCCCCC(=O)OC)C5(CCCC(C)O5)NC(=N2)N34)O1 (centres unmarked) [Methyl 11] | 0% | 0% | 0% | 0% | –
